Results published in patent US4909940A, “Extraction of process chemicals from labile biological mixtures with organic alcohols or with halogenated hydrocarbons” (priority 1987, dated 1990).
Like-named read-outs stand apart in the source and are kept apart here.

Assays:
AHF [1] = assay: AHF retention after extraction of AHF concentrate with halogenated hydrocarbons; type: biochemical, human; details: 5% (w/v) halogenated hydrocarbon, 30 minutes, ambient
Procedure: (§2) An AHF concentrate prepared from human plasma was treated with 0.3% TNBP and either 1% "TRITON X-45" or 1% "TWEEN 80" to inactivate virus. Following treatment, the solution was extracted one time with 5% (w/v) of a halogenated hydrocarbon by mixing for a period of 30 minutes at ambient temperature. The quantity of residual AHF, TNBP and detergent present in the aqueous solution was measured and compared with the unextracted control.

[2] = Removal of TNBP from AHF concentrate with halogenated hydrocarbons; details: 0.3% TNBP; 5% (w/v) halogenated hydrocarbon, 30 minutes, ambient
Procedure: as §2

[3] = Removal of TWEEN 80 from AHF concentrate with halogenated hydrocarbons; details: 1% TWEEN 80; 5% (w/v) halogenated hydrocarbon, 30 minutes, ambient
Procedure: as §2

[4] = Removal of TRITON X-45 from AHF concentrate with halogenated hydrocarbons; details: 1% TRITON X-45; 5% (w/v) halogenated hydrocarbon, 30 minutes, ambient
Procedure: as §2

[5] = Removal of TRITON X-45 from AHF concentrate with alcohols; details: 0.3% TNBP and 1% TRITON X-45; 10% (w/v) alcohol, 30 minutes, ambient
AHF [6] = assay: AHF retention after extraction of AHF concentrate with alcohols; type: biochemical, human; details: 0.3% TNBP and 1% TRITON X-45; 10% (w/v) alcohol, 30 minutes, ambient
[7] = Extraction of process chemicals from saline: TRITON X45; details: 1% TRITON X45 in saline
[8] = Extraction of process chemicals from saline: TRITON X114; details: 1% TRITON X114 in saline
AHF [9] = assay: Recovery of AHF procoagulant activity following extraction; type: biochemical; details: for AHF recovery: AHF concentrate or plasma; for AHF % Recovery / AHF Activity After: 5% extractant
[10] = Extraction of process chemicals from plasma: TRITON X45; details: 1% TRITON X45 in plasma
Source text: (§1) The results are in general agreement with those observed extracting from saline.

[11] = Extraction of process chemicals from saline: TNBP; details: 1% TNBP in saline
[12] = Extraction of process chemicals from plasma: TWEEN 80; details: 1% TWEEN 80 in plasma
Source text: as §1

[13] = Extraction of process chemicals from saline: TWEEN 80; details: 1% TWEEN 80 in saline
[14] = Extraction of process chemicals from saline: Nonoxynol; details: 1% Nonoxynol in saline; 5% extractant
[15] = Extraction of process chemicals from plasma: TNBP; details: 2% TNBP in plasma
Source text: as §1

[16] = Extraction of process chemicals from plasma: TRITON X114; details: 1% TRITON X114 in plasma
Source text: as §1

[17] = Extraction of process chemicals from plasma: TRITON X100; details: 1% TRITON X100 in plasma
Source text: as §1

[18] = Extraction of process chemicals from saline: TRITON X100; details: 1% TRITON X100 in saline
[19] = Aqueous solubility of alcohols; details: water
[20] = system: Vesicular stomatitis virus; assay: microbe, parasite or virus in culture; type: cell-based
[21] = Removal of TRITON X-45 from cryoprecipitate; details: extracted two times, 10% FORANE or 10% FORANE and 5% heptanol; lyophilized
AHF [22] = assay: AHF recovery after extraction of cryoprecipitate; type: biochemical; details: extracted two times, 10% FORANE or 10% FORANE and 5% heptanol; sterile filtered, lyophilized
AHF [23] = assay: AHF activity retained after depyrogenation extraction; type: biochemical; details: 10% (v/v) extractant, 30 minutes, 24° C.
Procedure: AHF concentrate containing 6.4 ng/ml of endotoxin was extracted by mechanically shaking with 10% (v/v) 2-octanol or "FORANE" for 30 minutes at 24° C. After separation of the extractant by centrifugation, the pyrogen level was determined by the Limulus Amebocyte Lysate assay with a sensitivity of 0.025 ng/ml of endotoxin. The effect of these treatments is shown below in Table XI. […] More than 90% of the original AHF activity was retained following the extraction.

AHF [24] = assay: Protein functional activity after extraction of plasma: AHF; type: biochemical; details: 10% extractant, 30 minutes, ambient
[25] = Removal of TNBP from cryoprecipitate; details: extracted two times, 10% FORANE or 10% FORANE and 5% heptanol; lyophilized
[26] = Merocyanine removal from saline on extraction with FORANE; details: 10% FORANE
Antithrombin III = assay: Protein functional activity after extraction of plasma: Antithrombin III; type: biochemical; details: 10% extractant, 30 minutes, ambient
Procedure: (§3) Plasma was extracted with either 10% "FORANE" or 10% 2-octanol for 30 minutes at ambient temperature.

red blood cells = assay: Red blood cell retention on extraction with FORANE; parameters: species or system human; details: 10% FORANE
Factor IX = assay: Protein functional activity after extraction of plasma: Factor IX; type: biochemical; details: 10% extractant, 30 minutes, ambient
Procedure: as §3

[27] = water

SMILES: FC(F)(F)C(F)(F)C(F)(F)C(F)(F)N(C(F)(F)C(F)(F)C(F)(F)C(F)(F)F)C(F)(F)C(F)(F)C(F)(F)C(F)(F)F [Perfluorotributyl amine]
- % Retention AHF (AHF [1]): 112%
- Percent Removal TNBP [2]: 31%
- Percent Removal TWEEN 80 [3]: 3%
- Percent Removal TRITON X-45 [4]: 0%

SMILES: FC(F)OC(F)(F)C(F)Cl (stereo not shown) [Ethrane, 2-chloro-1,1,2-trifluoroethyl difluoromethyl ether]
- % Retention AHF (AHF [1]): 100%
- Percent Removal TNBP [2]: 99%
- Percent Removal TRITON X-45 [4]: 99%

SMILES: CCCCCCCCCO [1-nonanol]
- TRITON X-45 (% Removal) [5]: 100%
- AHF (% Retention) (AHF [6]): 100%

SMILES: CCCCCO [1-pentanol]
- Percent Extraction ([7]; 5% extractant): 97%
- Percent Extraction ([8]; 5% extractant): 91%
- AHF recovery (AHF [9]): approximately 1%
- AHF % Recovery (AHF [9]; AHF concentrate): 1%
- AHF Activity After (AHF [9]; AHF concentrate): 0.02 units/mL
- AHF % Recovery (AHF [9]; plasma): 1%
- AHF Activity After (AHF [9]; plasma): 0.01 units/mL
- Percent Extraction ([10]; 5% extractant): 80%
- Percent Extraction ([11]; 5% extractant): 99%
- Percent Extraction ([12]; 5% extractant): 7%
- Percent Extraction ([13]; 5% extractant): 28-42%
- Percent Extraction [14]: 92%
- Percent Extraction ([15]; 5% extractant): 98%
- Percent Extraction ([16]; 5% extractant): 75%
- Percent Extraction ([17]; 5% extractant): 65%
- Percent Extraction ([18]; 5% extractant): 92%

SMILES: CC(C)CCO [isoamyl alcohol]
- TRITON X-45 (% Removal) [5]: 100%
- Aqueous Solubility [19]: 2.0 g %
- AHF (% Retention) (AHF [6]): 1%

SMILES: CCCCN1C(=O)C(=CC=CC=C2Oc3ccccc3N2CCCS(=O)(=O)O)C(=O)N(CCCC)C1=S [merocyanine 540]
- Final Virus Titer [20]: < -0.5
- Virus titer, Control (no light) [20]: 3.7
- log reduction at 40 µg/mL ([20]; Vesicular stomatitis virus, 1 h, read-out: Total Virus Kill): > 4.2

SMILES: CCCCCCCCO [1-octanol]
- TRITON X-45 (% Removal) [5]: 100%
- Aqueous Solubility [19]: 0.05 g %
- AHF (% Retention) (AHF [6]): 96%

SMILES: CCCCCCCCCCO [1-decanol]
- TRITON X-45 (% Removal) [5]: 100%
- Aqueous Solubility [19]: < 0.05 g %
- AHF (% Retention) (AHF [6]): 100%

SMILES: FC(F)OC(Cl)C(F)(F)F (stereo not shown) [FORANE, 1-chloro-2,2,2-trifluoroethyl difluoromethyl ether]
- Percent Removal TRITON X-45 [21]: 96%
- Percent Extraction ([7]; 5% extractant): 99%
- Percent Extraction ([7]; 20% extractant): 99%
- Percent Extraction ([8]; 5% extractant): 99%
- Percent Extraction ([8]; 20% extractant): 99%
- AHF recovery (AHF [9]): ~100%
- AHF % Recovery (AHF [9]; AHF concentrate): 102%
- AHF Activity After (AHF [9]; AHF concentrate): 2.69 units/mL
- AHF recovery (AHF [22]): 95%
- Percent Extraction ([10]; 5% extractant): 91%
- Percent Extraction ([10]; 20% extractant): 99%
- Percent Extraction ([11]; 5% extractant): 99%
- Percent Extraction ([11]; 20% extractant): 99%
- original AHF activity retained (AHF [23]): More than 90%
- % Retention AHF (AHF [24]): 98%
- Percent Extraction ([12]; 20% extractant): 66%
- % Retention AHF (AHF [1]): 100%
- Percent Extraction ([13]; 5% extractant): 85%
- Percent Extraction ([13]; 20% extractant): 87%
- Percent Removal TNBP [2]: 99%
- Percent Removal TNBP [25]: 99.88%
- Percent Extraction ([15]; 5% extractant): 94%
- Percent Extraction ([15]; 20% extractant): 96%
- Merocyanine % Removal [26]: 83%
- Percent Extraction ([16]; 5% extractant): 96%
- Percent Extraction ([16]; 20% extractant): 96%
- % Retention Antithrombin III (Antithrombin III): 100%
- Red Blood Cell Retention (red blood cells): 97%
- Percent Removal TWEEN 80 [3]: 87%
- Percent Removal TRITON X-45 [4]: 99%
- % Retention Factor IX (Factor IX): 99%
- Percent Extraction ([17]; 5% extractant): 95%
- Percent Extraction ([17]; 20% extractant): 96%
- Percent Extraction ([18]; 5% extractant): 99%
- Percent Extraction ([18]; 20% extractant): 99%

SMILES: CCCCCO [amyl alcohol]
- TRITON X-45 (% Removal) [5]: 100%
- AHF (% Retention) (AHF [6]): 1%
- Aqueous Solubility [27]: 2.3 g %

SMILES: FC1(F)C(F)(F)C(F)(F)C2(F)C(F)(F)C(F)(F)C(F)(F)C(F)(F)C2(F)C1(F)F (stereo not shown) [Perfluorodecalin]
- % Retention AHF (AHF [1]): 107%
- Percent Removal TNBP [2]: 14%
- Percent Removal TWEEN 80 [3]: 0%
- Percent Removal TRITON X-45 [4]: 0%

SMILES: FC(F)(Cl)C(F)(Cl)Cl [1,2,2-Trifluorotrichloroethane, 1,2,2-trifluorotrichloroethane]
- % Retention AHF (AHF [1]): 98%
- Percent Removal TNBP [2]: 93%
- Percent Removal TWEEN 80 [3]: 3%
- Percent Removal TRITON X-45 [4]: 8%

SMILES: FC(F)(F)C(F)(F)C(F)(F)C(F)(F)C(F)(F)C(F)(F)F [Perfluorohexane]
- % Retention AHF (AHF [1]): 98%
- Percent Removal TNBP [2]: 27%
- Percent Removal TWEEN 80 [3]: 0%
- Percent Removal TRITON X-45 [4]: 0%

SMILES: CCCCCCO [hexanol]
- TRITON X-45 (% Removal) [5]: 100%
- AHF (% Retention) (AHF [6]): 63%

SMILES: CCCCCCCCCCCO [undecanol]
- TRITON X-45 (% Removal) [5]: 100%
- Aqueous Solubility [19]: < 0.05 g %
- AHF (% Retention) (AHF [6]): 94%

SMILES: CCCCCCC(C)O (stereo not shown) [2-octanol]
- Percent Extraction ([7]; 5% extractant): 83-96%
- Percent Extraction ([8]; 5% extractant): 94%
- AHF recovery (AHF [9]): approximately 90%
- AHF % Recovery (AHF [9]; AHF concentrate): 89%
- AHF Activity After (AHF [9]; AHF concentrate): 2.35 units/mL
- AHF % Recovery (AHF [9]; plasma): 91%
- AHF Activity After (AHF [9]; plasma): 1.15 units/mL
- TRITON X-45 (% Removal) [5]: 100%
- Percent Extraction ([10]; 5% extractant): 62%
- Percent Extraction ([11]; 5% extractant): 99%
- original AHF activity retained (AHF [23]): More than 90%
- % Retention AHF (AHF [24]): 95%
- Percent Extraction ([12]; 5% extractant): 21%
- Percent Extraction ([13]; 5% extractant): 0-12%
- Percent Extraction [14]: 49%
- Percent Extraction ([15]; 5% extractant): 98%
- Aqueous Solubility [19]: 0.05 g %
- Percent Extraction ([16]; 5% extractant): 33%
- % Retention Antithrombin III (Antithrombin III): 100%
- AHF (% Retention) (AHF [6]): 93%
- % Retention Factor IX (Factor IX): 99%
- Percent Extraction ([17]; 5% extractant): 19%
- Percent Extraction ([18]; 5% extractant): 60%

SMILES: CCCCCCCO [heptanol]
- TRITON X-45 (% Removal) [5]: 100%
- AHF (% Retention) (AHF [6]): 98%
- Aqueous Solubility [27]: 0.2 g %
